Results on three molecules are retold here after patent publication US20100076003A1, “5-OXAZOLIDIN-2-ONE SUBSTITUTED 1,3,8-TRIAZASPIRO[4.5]DECAN-4-ONE DERIVATIVES USEFUL AS ORL-1 RECEPTOR MODULATORS” (priority 2008, published 2010).

In assay [1] the target is Kappa (κ) opioid receptor (Homo sapiens, UniProt P41145). Description: Filtration binding assay, kappa opioid receptor, U-69,593-3H ligand.
For assay [2], the target named is Delta (δ) opioid receptor (Homo sapiens, UniProt P41143). Put plainly: Filtration binding assay, delta opioid receptor, DPDPE-3H ligand.
Chain of Delta (δ) opioid receptor (P41143 whole entry): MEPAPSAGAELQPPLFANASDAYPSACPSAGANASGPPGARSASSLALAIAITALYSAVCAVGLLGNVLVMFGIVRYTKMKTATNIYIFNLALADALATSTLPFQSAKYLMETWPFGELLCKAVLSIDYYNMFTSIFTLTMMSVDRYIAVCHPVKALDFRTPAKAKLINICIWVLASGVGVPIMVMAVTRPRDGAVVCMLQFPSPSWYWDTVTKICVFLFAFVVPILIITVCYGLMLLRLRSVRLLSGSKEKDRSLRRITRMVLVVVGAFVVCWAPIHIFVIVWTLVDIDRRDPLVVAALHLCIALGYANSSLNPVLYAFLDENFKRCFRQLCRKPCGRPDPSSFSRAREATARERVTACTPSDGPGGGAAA
The target in the next assay is Mu (μ) opioid receptor (Homo sapiens, UniProt P35372). Put plainly: Filtration binding assay, mu opioid receptor, DAMGO-3H ligand.
Chain of Mu (μ) opioid receptor (P35372 whole entry): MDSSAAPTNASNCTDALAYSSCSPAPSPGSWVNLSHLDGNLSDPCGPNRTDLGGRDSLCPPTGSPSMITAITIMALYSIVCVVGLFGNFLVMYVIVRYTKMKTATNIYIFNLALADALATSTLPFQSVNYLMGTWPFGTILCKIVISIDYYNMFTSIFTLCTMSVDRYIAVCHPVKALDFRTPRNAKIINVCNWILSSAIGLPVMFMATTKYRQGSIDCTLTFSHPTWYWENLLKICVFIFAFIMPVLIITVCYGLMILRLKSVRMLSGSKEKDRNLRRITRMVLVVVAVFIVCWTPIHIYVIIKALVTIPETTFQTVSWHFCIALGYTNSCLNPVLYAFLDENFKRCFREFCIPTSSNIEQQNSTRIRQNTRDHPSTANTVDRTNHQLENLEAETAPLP

The structures appear in SMILES notation. pKi: −log10 of the molar value. Where only a bound is given, the exact number is not on record here.

Chain of Kappa (κ) opioid receptor (P41145 whole entry): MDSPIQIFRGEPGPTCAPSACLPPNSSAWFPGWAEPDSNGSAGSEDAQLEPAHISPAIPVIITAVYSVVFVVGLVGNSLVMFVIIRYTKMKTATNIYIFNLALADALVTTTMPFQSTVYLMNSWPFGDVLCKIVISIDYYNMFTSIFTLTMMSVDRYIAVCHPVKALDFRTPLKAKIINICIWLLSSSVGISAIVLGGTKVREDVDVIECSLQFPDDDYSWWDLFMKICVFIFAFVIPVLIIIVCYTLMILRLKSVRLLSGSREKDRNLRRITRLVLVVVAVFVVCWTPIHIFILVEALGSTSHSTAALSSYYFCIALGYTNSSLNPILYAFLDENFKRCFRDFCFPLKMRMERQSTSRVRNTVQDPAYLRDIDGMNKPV

Consider `Cc1cccc2cccc(CN3CCC4(CC3)C(=O)N(C[C@H]3CNC(=O)O3)CN4c3ccc(F)cc3)c12` [Compound 2, 1-(4-Fluoro-phenyl)-8-(8-methyl-naphthalen-1-ylmethyl)-3-(R)-(2-oxo-oxazolidin-5-ylmethyl)-1,3,8-triaza-spiro[4.5]decan-4-one], for which the figures for the pKi (in assay [1]; in assay [2]; at Mu (μ) opioid receptor) were 6.19, < 5.30 and 6.13, respectively.

Consider `COCCN1C[C@@H](CN2CN(c3ccc(F)cc3)C3(CCN(Cc4cccc5cccc(C)c45)CC3)C2=O)OC1=O` [Compound 5, 1-(4-Fluoro-phenyl)-3-(R)-[3-(2-methoxy-ethyl)-2-oxo-oxazolidin-5-ylmethyl]-8-(8-methyl-naphthalen-1-ylmethyl)-1,3,8-triaza-spiro[4.5]decan-4-one], for which the pKi – broadly, the negative decadic logarithm of the Ki, by convention in mol/L – in assay [1] was 6.24; in assay [2], < 5.30; on Mu (μ) opioid receptor it was 6.74.

For the molecule `Cc1cccc2cccc(CN3CCC4(CC3)C(=O)N(C[C@H]3CN(C)C(=O)O3)CN4c3ccc(F)cc3)c12` [Compound 4, 1-(4-Fluoro-phenyl)-8-(8-methyl-naphthalen-1-ylmethyl)-3-(S)-(3-methyl-2-oxo-oxazolidin-5-ylmethyl)-1,3,8-triaza-spiro[4.5]decan-4-one], the results for the pKi (in assay [1]; in assay [2]; on Mu (μ) opioid receptor) were 6.92, < 5.30 and 6.44, respectively.
